Measured values as given in publication PMC3623961, “A Comparative Study of Interaction of Tetracycline with Several Proteins Using Time Resolved Anisotropy, Phosphorescence, Docking and FRET” (PLoS ONE, 2013).
Where a name gives a salt, the structure may show the parent alone.

Columns and labels:
[1] = molecular target: T1, Bovine serum albumin (BSA) (Bos taurus, UniProt P02769); assay: fluorescence enhancement of bound tetracycline, modified Benesi-Hildebrand; conditions: read-out: Binding Constant (M^-1) (converted)
T1 construct: gene ALB; mature serum albumin, 17 disulfides, Trp134 and Trp213; purchased from Sigma-Aldrich
Description: fluorescence enhancement of bound tetracycline, modified Benesi-Hildebrand on Bovine serum albumin (BSA)

[2] = molecular target: T2, Human serum albumin (HSA) (Homo sapiens, UniProt P02768); assay: as above; conditions: read-out: Binding Constant (M^-1) (converted)
T2 construct: gene ALB; mature serum albumin, 585 amino acids, 17 disulfides, single Trp214; purchased from Sigma-Aldrich
Description: fluorescence enhancement of bound tetracycline, modified Benesi-Hildebrand on Human serum albumin (HSA)

T1 sequence (P02769 25-607): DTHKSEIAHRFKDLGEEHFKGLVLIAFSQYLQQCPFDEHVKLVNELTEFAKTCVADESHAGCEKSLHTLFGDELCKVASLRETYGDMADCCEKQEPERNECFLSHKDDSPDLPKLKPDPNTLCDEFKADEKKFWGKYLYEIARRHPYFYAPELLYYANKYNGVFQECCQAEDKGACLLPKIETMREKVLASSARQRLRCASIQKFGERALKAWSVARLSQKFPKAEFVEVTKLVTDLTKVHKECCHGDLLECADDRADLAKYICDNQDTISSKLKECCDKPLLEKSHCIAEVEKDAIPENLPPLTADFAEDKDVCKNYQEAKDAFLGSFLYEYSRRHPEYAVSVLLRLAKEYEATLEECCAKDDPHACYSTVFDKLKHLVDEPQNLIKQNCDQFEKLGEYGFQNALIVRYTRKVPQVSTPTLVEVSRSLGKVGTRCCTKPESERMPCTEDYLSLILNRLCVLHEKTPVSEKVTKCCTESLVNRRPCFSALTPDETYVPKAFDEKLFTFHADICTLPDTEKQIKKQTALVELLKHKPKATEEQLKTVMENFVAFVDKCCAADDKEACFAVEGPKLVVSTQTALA
T2 sequence (P02768 25-609): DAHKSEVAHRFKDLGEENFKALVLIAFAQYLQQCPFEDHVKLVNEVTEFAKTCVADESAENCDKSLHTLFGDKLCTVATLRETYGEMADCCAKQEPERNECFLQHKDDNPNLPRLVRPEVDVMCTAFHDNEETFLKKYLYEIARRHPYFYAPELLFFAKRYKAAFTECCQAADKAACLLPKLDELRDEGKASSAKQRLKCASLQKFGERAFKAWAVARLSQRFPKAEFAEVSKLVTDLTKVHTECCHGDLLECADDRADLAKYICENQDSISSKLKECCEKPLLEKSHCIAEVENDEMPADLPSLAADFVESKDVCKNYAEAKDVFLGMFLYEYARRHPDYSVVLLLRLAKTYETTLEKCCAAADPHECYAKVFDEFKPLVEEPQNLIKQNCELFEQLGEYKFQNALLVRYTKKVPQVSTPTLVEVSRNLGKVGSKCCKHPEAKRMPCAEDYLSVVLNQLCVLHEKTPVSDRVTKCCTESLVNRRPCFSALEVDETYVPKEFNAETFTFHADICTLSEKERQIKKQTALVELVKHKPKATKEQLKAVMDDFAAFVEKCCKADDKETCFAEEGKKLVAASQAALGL

- Kd [1]: 21.2 µM
- Kd [2]: 31.8 µM
SMILES: CN(C)[C@@H]1C(O)=C(C(N)=O)C(=O)[C@@]2(O)C(O)=C3C(=O)c4c(O)cccc4[C@@](C)(O)[C@H]3C[C@@H]12 [Tetracycline hydrochloride]
